Marks after values point to notes of the source that are not given here.
Columns and labels:
[1] = tested on: breast and endometrial tissues; test: Antiestrogens tested for SERM function and estrogenic activity in breast and endometrium
ZR-75-1 breast tumors = test: Growth and response category of human ZR-75-1 breast tumors in OVX nude mice, 7 antiestrogens, 161 days (Example 8); format: in vivo
Experimental: The mice (5 per cage) were housed in vinyl cages equipped with air filter lids, which were kept in laminar airflow hoods and maintained under pathogen-limiting conditions. The photoperiod was 12 hours of light and 12 hours of darkness (lights on at 07:15). Cages, bedding and food (Agway Pro-Lab R-M-H Diet #4018) were autoclaved before use. Water was autoclaved and provided ad libitum. Bilateral ovariectomy was performed under isoflurane-induced anesthesia. […] Randomization and treatments were started one week later. […] The 17 groups included two control groups (OVX and OVX+Estrone), seven groups supplemented with an estrone implant and treated with an antiestrogen and eight other groups that received an antiestrogen alone. The estrone implants were then removed from the animals in the ovariectomized control group (OVX) and in groups that were to receive the antiestrogen alone. […] Tamoxifen was purchased from […], Israel) while toremifene citrate was purchased from Orion (Espoo, Finland). […] Animals in both control groups received 0.2 ml of the vehicle alone. The antiestrogen suspensions at the appropriate concentration were prepared each month, stored at 4° C. and used under constant agitation. Powder stock were hermetically stored at 4° C. […] Tumor response was assessed at the end of the study or at death of each animal, if it occurred during the course of the experiment. In this case, only data of mice that survived for at least half of the study (84 days) were used in the tumor response analysis.

endometrial epithelium = test: Thickness of uterine (endometrial) epithelial cells in the mice of Example 8; format: in vivo, nude mice; conditions: for Endometrial epithelium thickness: 161 days
Description: The 17 groups included two control groups (OVX and OVX+Estrone), seven groups supplemented with an estrone implant and treated with an antiestrogen and eight other groups that received an antiestrogen alone. The estrone implants were then removed from the animals in the ovariectomized control group (OVX) and in groups that were to receive the antiestrogen alone. […] Tamoxifen was purchased from […], Israel) while toremifene citrate was purchased from Orion (Espoo, Finland). […] Animals in both control groups received 0.2 ml of the vehicle alone. The antiestrogen suspensions at the appropriate concentration were prepared each month, stored at 4° C. and used under constant agitation. Powder stock were hermetically stored at 4° C. […] After 161 days of treatment, the remaining animals were anesthetized with isoflurane and killed by exsanguination. […] The uteri were prepared to evaluate endometrial thickness by image analysis performed with Image Pro-Plus (Media Cybernetics, Maryland, USA). […] Hematoxylin- and eosin-stained sections of mice uteri were analysed. […] Mean epithelial cell height was measured in all animals of each group.

[2] = 50 μg daily + estrone, 161 days

Compound: CC1=C(c2ccc(O)cc2)[C@H](c2ccc(OCCN3CCCCC3)cc2)Oc2cc(O)ccc21.Cl [EM-652.HCl, (S)-(+)-7-hydroxy-3-(4′-hydroxyphenyl)-4-methyl-2-(4″-(2′″-piperidinoethoxy)phenyl)-2H-1-benzopyran hydrochloride]
- Function as SERM [1]: found to function as SERMs
- Estrogenic activity in breast and endometrial tissues ([1]; physiological or pharmacological concentrations): do not have any estrogenic activity
- Complete response, of tumors (ZR-75-1 breast tumors; [2]): 17%
- Partial response, of tumors (ZR-75-1 breast tumors; [2]): 17%
- Progressing tumors (ZR-75-1 breast tumors; [2]): 7%
- Stable response, of tumors (ZR-75-1 breast tumors; [2]): 60%
- Effect on estrone-stimulated tumor growth (ZR-75-1 breast tumors; 50 μg daily oral + estrone, 23 weeks): completely prevented tumor growth
- Change of ZR-75-1 tumor size compared to the OVX control group (ZR-75-1 breast tumors; 200 μg daily alone, absence of estrone, 161 days): did not significantly change
- Inhibition of the stimulatory effect of estrone on epithelial height (endometrial epithelium; 50 μg daily oral + estrone): 70%
- Height of uterine epithelial cells, of the OVX control group value (endometrial epithelium; 200 μg daily, absence of estrone): 114%
- Endometrial epithelium thickness (endometrial epithelium; OVX + E1 + antiestrogen 50 μg daily): 25.06^b ± 0.07 μm
- Endometrial epithelium thickness (endometrial epithelium; OVX + antiestrogen 200 μg daily, no estrone): 20.79 ± 0.10 μm
